# Source: article PMC8752738, “A propolis-derived small molecule ameliorates metabolic syndrome in obese mice by targeting the CREB/CRTC2 transcriptional complex” (Nature Communications, 2022)
# “And” between values parts separate entries of the source, which are not always exact repeats. Equal entries are not always repeated.
# Assay: Glucose, insulin, and pyruvate tolerance tests
# Type: in vivo, mouse
# Parameters: AUC of IGTT, Total Area / AUC analysis of ITT, Total Area / AUC of ITT, group mean / AUC of PTT, group mean / IGTT, Mean Diff. APC - VEH / IGTT, group mean (Mean 1, APC): unit not given beside the values
# Description: After overnight fasting, mice were i.p. injected or treated orally with D-glucose (1–2 g/kg) for glucose-tolerance tests (IGTT or OGTT) or injecting with sodium pyruvate (1–2 g/kg) for pyruvate tolerance tests (PTT). Insulin-tolerance tests (ITT) were performed by i.p. injection of insulin (1 U/kg) 2-h after food removal. […]
# [1] = db/db mice, ip APC, ITT 0-120 min
# [2] = db/db mice, ip APC, 15 min, n=6
# [3] = db/db mice, ip APC, 30 min, n=6
# [4] = db/db mice, ip APC, 60 min, n=6
# [5] = db/db mice, ip APC, 120 min, n=6
# [6] = db/db mice, ip APC, PTT 0-120 min
structure (smiles),measurement,setting,value
"CC(C)=CCc1cc(C=CC(=O)O)cc(CC=C(C)C)c1O [APC, 3,5-diprenyl-4-hydroxycinnamic acid]","IGTT, Mean Diff. APC - VEH","db/db mice, 60 min",-166.5
same,"IGTT, group mean (Mean 1, APC)","db/db mice, 60 min, n=8",217.8
same,"IGTT, Mean Diff. APC - VEH","db/db mice, 120 min",-105
same,"IGTT, group mean (Mean 1, APC)","db/db mice, 120 min, n=8",171
same,"AUC of ITT (Total Area), individual mice","db/db mice, ip APC",528.6 and 524.4 and 533.7 and 561.3 and 514.8 and 472.5
same,"AUC of ITT in db, difference between means (APC - VEH) ± SEM","db/db mice, ip APC",-215.2 ± 51.46
same,"AUC of PTT, individual mice","db/db mice, ip APC",534.6 and 662.4 and 481.5 and 659.7 and 691.6 and 494.5
same,IGTT blood glucose,"db/db mice, ip APC, 0 mins, individual mouse, n=8",153 mg/dL and 144 mg/dL and 142.2 mg/dL and 138.6 mg/dL and 176.4 mg/dL and 127.8 mg/dL and 140.4 mg/dL and 113.4 mg/dL
same,IGTT blood glucose,"db/db mice, ip APC, 15 mins, individual mouse, n=8",477 mg/dL and 363.6 mg/dL and 334.8 mg/dL and 511.2 mg/dL and 419.4 mg/dL and 423 mg/dL and 480.6 mg/dL and 525.6 mg/dL
same,IGTT blood glucose,"db/db mice, ip APC, 30 mins, individual mouse, n=8",262.8 mg/dL and 450 mg/dL and 293.4 mg/dL and 275.4 mg/dL and 228.4 mg/dL and 228.6 mg/dL and 124.2 mg/dL and 385.2 mg/dL
same,IGTT blood glucose,"db/db mice, ip APC, 60 mins, individual mouse, n=8",205.2 mg/dL and 233.8 mg/dL and 221.4 mg/dL and 237.6 mg/dL and 329.4 mg/dL and 163.8 mg/dL and 135 mg/dL and 216 mg/dL
same,IGTT blood glucose,"db/db mice, ip APC, 120 mins, individual mouse, n=8",176.4 mg/dL and 270 mg/dL and 153 mg/dL and 138.6 mg/dL and 250.2 mg/dL and 133.2 mg/dL and 99 mg/dL and 147.6 mg/dL
same,"ITT blood glucose, difference between column means (CT vs APC)",[1],51.32
same,"ITT blood glucose, mean over all time points (Mean of APC)",[1],134.7
same,"ITT blood glucose, Mean Diff. APC - CT","db/db mice, ip APC, 0 min",-52.47
same,"ITT blood glucose, individual mice","db/db mice, ip APC, 0 min",178.2 mg/dL and 172.8 mg/dL and 156.6 mg/dL and 194.4 mg/dL and 190.4 mg/dL and 192.6 mg/dL
same,"ITT blood glucose, group mean (Mean 1, APC)","db/db mice, ip APC, 0 min, n=6",180.8
same,"ITT blood glucose, Mean Diff. APC - CT","db/db mice, ip APC, 15 min",-63.57
same,"ITT blood glucose, individual mice","db/db mice, ip APC, 15 min",137.6 mg/dL and 129.6 mg/dL and 153 mg/dL and 133 mg/dL and 138.3 mg/dL and 126 mg/dL
same,"ITT blood glucose, group mean (Mean 1, APC)",[2],136.3
same,"ITT blood glucose, Mean Diff. APC - CT","db/db mice, ip APC, 30 min",-56.08
same,"ITT blood glucose, individual mice","db/db mice, ip APC, 30 min",101.2 mg/dL and 129.6 mg/dL and 115.2 mg/dL and 124.2 mg/dL and 128.4 mg/dL and 111.6 mg/dL
same,"ITT blood glucose, group mean (Mean 1, APC)",[3],118.4
same,"ITT blood glucose, Mean Diff. APC - CT","db/db mice, ip APC, 60 min",-54.15
same,"ITT blood glucose, individual mice","db/db mice, ip APC, 60 min",120.6 mg/dL and 115 mg/dL and 129.6 mg/dL and 138.6 mg/dL and 105.2 mg/dL and 91.8 mg/dL
same,"ITT blood glucose, group mean (Mean 1, APC)",[4],116.8
same,"ITT blood glucose, Mean Diff. APC - CT","db/db mice, ip APC, 120 min",-30.35
same,"ITT blood glucose, individual mice","db/db mice, ip APC, 120 min",160.2 mg/dL and 127.6 mg/dL and 115.2 mg/dL and 136.6 mg/dL and 95.3 mg/dL and 93.6 mg/dL
same,"ITT blood glucose, group mean (Mean 1, APC)",[5],121.4
same,"PTT blood glucose, difference between column means (VEH vs APC)",[6],95.48
same,"PTT blood glucose, mean over all time points (Mean of APC)",[6],143.6
same,"PTT blood glucose, Mean Diff. APC - VEH","db/db mice, ip APC, 0 min",-59.27
same,"PTT blood glucose, individual mice","db/db mice, ip APC, 0 min",156.6 mg/dL and 129.6 mg/dL and 131.4 mg/dL and 153 mg/dL and 147.6 mg/dL and 135.8 mg/dL
same,"PTT blood glucose, group mean (Mean 1, APC)","db/db mice, ip APC, 0 min, n=6",142.3
same,"PTT blood glucose, Mean Diff. APC - VEH","db/db mice, ip APC, 15 min",-65.02
same,"PTT blood glucose, individual mice","db/db mice, ip APC, 15 min",142.2 mg/dL and 181.8 mg/dL and 156.6 mg/dL and 169.2 mg/dL and 180.5 mg/dL and 149.4 mg/dL
same,"PTT blood glucose, group mean (Mean 1, APC)",[2],163.3
same,"PTT blood glucose, Mean Diff. APC - VEH","db/db mice, ip APC, 30 min",-106.5
same,"PTT blood glucose, individual mice","db/db mice, ip APC, 30 min",135 mg/dL and 194.4 mg/dL and 126 mg/dL and 172.8 mg/dL and 163.7 mg/dL and 142.2 mg/dL
same,"PTT blood glucose, group mean (Mean 1, APC)",[3],155.7
same,"PTT blood glucose, Mean Diff. APC - VEH","db/db mice, ip APC, 60 min",-119.1
same,"PTT blood glucose, individual mice","db/db mice, ip APC, 60 min",124.2 mg/dL and 140.4 mg/dL and 99 mg/dL and 169.2 mg/dL and 201.6 mg/dL and 93.6 mg/dL
same,"PTT blood glucose, group mean (Mean 1, APC)",[4],138
same,"PTT blood glucose, Mean Diff. APC - VEH","db/db mice, ip APC, 120 min",-127.5
same,"PTT blood glucose, individual mice","db/db mice, ip APC, 120 min",109.8 mg/dl and 162 mg/dl and 68.4 mg/dl and 144 mg/dl (2×) and 82.8 mg/dl
same,"PTT blood glucose, group mean (Mean 1, APC)",[5],118.5
same,"IGTT AUC, Total Area","db/db mice, ip APC, individual mouse, n=8",1110 and 1254 and 997.2 and 1163 and 1191 and 945.9 and 859.5 and 1257
same,"AUC of ITT in db, group mean","db/db mice, ip APC, n=6",522.6
same,"AUC in PTT, mean of differences (APC - VEH)","db/db mice, ip APC, paired t test, 6 pairs",-383.9
same,"AUC of IGTT in db/db, group mean","db/db mice, n=8",1097
same,"AUC of ITT, group mean","mean of APC group, n=7",367.6
